Data reported in patent publication US12583861B2, “Derivatives of imidazo[4,5-d]pyridazine, their preparation and their therapeutic application” (SANOFI, priority 2021, dated 2026).
Counter-ions that a name gives are not always drawn.

Assays:
human TLR7 = biological target: T1, human TLR7 (Homo sapiens, UniProt Q9NYK1); assay: HEK-Blue hTLR7 reporter cell assay (SEAP, NF-kB/AP-1) for stimulation of human TLR7; format: cell-based; conditions: HEK-Blue hTLR7 cells, 24 h incubation, SEAP readout; read-out: TLR7_EC50
T1 construct: host or cells: HEK293 (HEK-Blue hTLR7)
T1 sequence (Q9NYK1 27-1049): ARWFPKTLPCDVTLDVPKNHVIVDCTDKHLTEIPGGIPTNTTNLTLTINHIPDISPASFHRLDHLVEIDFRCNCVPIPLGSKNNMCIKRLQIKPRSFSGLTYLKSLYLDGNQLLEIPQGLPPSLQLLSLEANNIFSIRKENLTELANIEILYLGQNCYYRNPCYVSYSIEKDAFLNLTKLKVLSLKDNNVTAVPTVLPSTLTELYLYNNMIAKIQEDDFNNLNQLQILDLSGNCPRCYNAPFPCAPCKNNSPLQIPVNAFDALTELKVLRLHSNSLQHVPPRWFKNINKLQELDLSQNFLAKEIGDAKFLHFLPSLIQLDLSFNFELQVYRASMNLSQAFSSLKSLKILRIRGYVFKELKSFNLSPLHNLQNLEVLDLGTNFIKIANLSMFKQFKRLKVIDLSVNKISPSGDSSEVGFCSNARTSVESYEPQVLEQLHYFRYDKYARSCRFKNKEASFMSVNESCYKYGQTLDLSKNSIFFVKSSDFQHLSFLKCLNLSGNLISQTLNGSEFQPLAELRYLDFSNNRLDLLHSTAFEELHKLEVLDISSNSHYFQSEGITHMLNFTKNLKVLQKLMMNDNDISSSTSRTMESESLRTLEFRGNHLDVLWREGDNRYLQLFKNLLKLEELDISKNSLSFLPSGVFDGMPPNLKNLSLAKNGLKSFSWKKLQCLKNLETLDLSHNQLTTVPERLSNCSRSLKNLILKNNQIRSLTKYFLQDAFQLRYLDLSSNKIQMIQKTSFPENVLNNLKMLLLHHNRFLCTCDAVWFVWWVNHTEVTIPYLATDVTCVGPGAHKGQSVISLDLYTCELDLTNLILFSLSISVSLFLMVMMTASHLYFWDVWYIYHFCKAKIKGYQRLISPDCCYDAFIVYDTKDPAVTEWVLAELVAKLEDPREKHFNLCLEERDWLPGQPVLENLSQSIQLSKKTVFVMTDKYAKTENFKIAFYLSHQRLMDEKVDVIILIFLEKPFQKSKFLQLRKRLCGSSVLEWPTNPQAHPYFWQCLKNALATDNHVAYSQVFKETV
How it was run: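 HEK293 cells expressing hTLR7 with NF-κB/AP-1-driven SEAP reporter, seeded 3.10E4 cells/well, pre-incubated 18–24 h, then exposed to 3-fold compound dilutions (0.01–20 μM) for 24 h at 37 °C. Supernatant SEAP read with QUANTI-Blue; EC50 as concentration giving 50% activation.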

human TLR8 = biological target: T2, human TLR8 (Homo sapiens, UniProt Q9NR97); assay: HEK-Blue hTLR8 reporter cell assay (SEAP, NF-kB/AP-1) for stimulation of human TLR8; format: cell-based; conditions: HEK-Blue hTLR8 cells; for EC50: 24 h incubation, SEAP readout, read-out: TLR8_EC50
T2 construct: host or cells: HEK293 (HEK-Blue hTLR8)
T2 sequence (Q9NR97 27-1041): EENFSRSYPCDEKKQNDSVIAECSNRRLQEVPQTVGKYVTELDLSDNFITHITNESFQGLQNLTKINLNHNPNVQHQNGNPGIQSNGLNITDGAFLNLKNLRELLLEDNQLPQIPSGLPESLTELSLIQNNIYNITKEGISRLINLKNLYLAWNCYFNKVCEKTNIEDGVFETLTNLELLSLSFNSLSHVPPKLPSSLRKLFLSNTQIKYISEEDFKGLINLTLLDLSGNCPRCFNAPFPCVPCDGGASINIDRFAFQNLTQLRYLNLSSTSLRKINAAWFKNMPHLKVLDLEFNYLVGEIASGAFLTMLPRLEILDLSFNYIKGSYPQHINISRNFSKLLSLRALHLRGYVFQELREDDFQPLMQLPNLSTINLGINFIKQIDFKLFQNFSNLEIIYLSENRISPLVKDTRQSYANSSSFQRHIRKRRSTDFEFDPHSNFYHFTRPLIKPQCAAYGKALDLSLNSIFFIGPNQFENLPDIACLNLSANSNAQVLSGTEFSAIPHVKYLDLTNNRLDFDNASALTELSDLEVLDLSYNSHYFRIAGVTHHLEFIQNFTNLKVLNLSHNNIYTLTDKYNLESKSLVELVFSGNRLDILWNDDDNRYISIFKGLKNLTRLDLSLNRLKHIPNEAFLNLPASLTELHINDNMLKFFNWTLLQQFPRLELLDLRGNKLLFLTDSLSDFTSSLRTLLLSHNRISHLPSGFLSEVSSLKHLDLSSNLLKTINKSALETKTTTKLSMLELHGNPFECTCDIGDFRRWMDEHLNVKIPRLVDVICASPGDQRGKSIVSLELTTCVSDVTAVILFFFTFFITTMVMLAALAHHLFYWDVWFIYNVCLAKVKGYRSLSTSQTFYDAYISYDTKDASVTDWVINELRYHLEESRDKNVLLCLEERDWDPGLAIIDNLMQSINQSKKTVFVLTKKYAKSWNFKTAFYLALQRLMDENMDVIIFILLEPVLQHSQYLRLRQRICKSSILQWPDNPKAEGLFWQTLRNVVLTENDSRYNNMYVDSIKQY
How it was run: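 HEK293 cells carrying hTLR8 and a SEAP reporter driven by NF-κB/AP-1 sites were seeded at 3.10E4 cells/well and held 18 to 24 h at 37° C., 5% CO2 before compound addition. Supernatant SEAP measured with QUANTI-Blue™.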

Structure (SMILES) | EC50 (human TLR7) [nM] | activation at 20 µM (human TLR8; 24 h, at 20000 nM) [%] | EC50 (human TLR8) [nM]
CCCCc1nc2c(N)nnc(SC(C)C)c2[nH]1 [Compound 99, 2-butyl-7-(isopropylthio)-1H-imidazo[4,5-d]pyridazin-4-amine] | 13600 | 18 | –
CCCCc1nc2c(N)nnc(OC(C)C)c2n1Cc1ccc(CN[C@H]2C[C@H](O)C2)cc1 [Compound 100, (1R,3R)-3-((4-((4-amino-2-butyl-7-isopropoxy-1H-imidazo[4,5-d]pyridazin-1-yl)methyl)benzyl)amino)cyclobutan-1-ol dihydrochloride salt] | 36 | – | 2170
CCCCc1nc2c(N)nnc(OC(C)C)c2n1Cc1ccc(CN2CCCC2)cc1 [Compound 101, 2-butyl-7-isopropoxy-1-(4-(pyrrolidin-1-ylmethyl)benzyl)-1H-imidazo[4,5-d]pyridazin-4-amine] | 13 | – | 355
CCCCc1nc2c(N)nnc(OC(C)C)c2n1Cc1ccc(CN2CCOCC2)cc1 [Compound 102, 2-butyl-7-isopropoxy-1-(4-(morpholinomethyl)benzyl)-1H-imidazo[4,5-d]pyridazin-4-amine] | 71 | – | 3830
CCCCc1nc2c(N)nnc(OC(C)C)c2n1Cc1ccc(CNC(=O)CC)cc1 [Compound 103, N-(4-((4-amino-2-butyl-7-isopropoxy-1H-imidazo[4,5-d]pyridazin-1-yl)methyl)benzyl)propionamide] | 55 | – | 15500
CCCCc1nc2c(N)nnc(OC(C)C)c2n1Cc1ccc(CNCCOC)cc1 [Compound 104, 2-butyl-7-isopropoxy-1-(4-(((2-methoxyethyl)amino)methyl)benzyl)-1H-imidazo[4,5-d]pyridazin-4-amine] | 22 | – | 546
CCCCc1nc2c(N)nnc(OC(C)C)c2n1Cc1ccc(CNCCOCCOCCOCCOCCOCCOC)cc1 [Compound 105, 2-butyl-4-isopropoxy-3-[[4-[[2-[2-[2-[2-[2-(2-methoxyethoxy)ethoxy]ethoxy]ethoxy]ethoxy]ethylamino]methyl]phenyl]methyl]imidazo[4,5-d]pyridazin-7-amine] | 114 | – | > 20000
CCCCc1nc2c(N)nnc(OC(C)C)c2n1Cc1ccc(CNC(=O)CCOC)cc1 [Compound 107, N-(4-((4-amino-2-butyl-7-isopropoxy-1H-imidazo[4,5-d]pyridazin-1-yl)methyl)benzyl)-3-methoxypropanamide] | 205 | – | > 20000
CCCCc1nc2c(N)nnc(OC(C)C)c2n1Cc1ccc(CNCCOCCOC)cc1 [Compound 108, 2-butyl-7-isopropoxy-1-(4-(((2-(2-methoxyethoxy)ethyl)amino)methyl)benzyl)-1H-imidazo[4,5-d]pyridazin-4-amine] | 29 | – | 1400
CCCCCCNCc1ccc(Cn2c(CCCC)nc3c(N)nnc(OC(C)C)c32)cc1 [Compound 109, 2-butyl-1-(4-((hexylamino)methyl)benzyl)-7-isopropoxy-1H-imidazo[4,5-d]pyridazin-4-amine] | 50 | – | 243
CCCCCCCCCCNCc1ccc(Cn2c(CCCC)nc3c(N)nnc(OC(C)C)c32)cc1 [Compound 110, 2-butyl-1-(4-((decylamino)methyl)benzyl)-7-isopropoxy-1H-imidazo[4,5-d]pyridazin-4-amine] | 734 | – | 2850
CCCCc1nc2c(N)nnc(OC(C)C)c2n1Cc1ccc(CNC(=O)OCC)cc1 [Compound 111, ethyl (4-((4-amino-2-butyl-7-isopropoxy-1H-imidazo[4,5-d]pyridazin-1-yl)methyl)benzyl)carbamate] | 99 | – | > 20000
CCCCc1nc2c(N)nnc(OC(C)C)c2n1Cc1ccc(CNC(=O)OCc2ccc(OC)cc2)cc1 [Compound 112, 4-methoxybenzyl (4-((4-amino-2-butyl-7-isopropoxy-1H-imidazo[4,5-d]pyridazin-1-yl)methyl)benzyl)carbamate] | 248 | – | > 20000
CCCCc1nc2c(N)nnc(OC(C)C)c2n1Cc1ccc(CNC(=O)NCC)cc1 [Compound 113, 1-(4-((4-amino-2-butyl-7-isopropoxy-1H-imidazo[4,5-d]pyridazin-1-yl)methyl)benzyl)-3-ethylurea] | 120 | – | > 20000
CCCCc1nc2c(N)nnc(OC(C)C)c2n1Cc1ccc(CNC(=O)OCc2ccc(NC(C)=O)cc2)cc1 [Compound 114, 4-acetamidobenzyl (4-((4-amino-2-butyl-7-isopropoxy-1H-imidazo[4,5-d]pyridazin-1-yl)methyl)benzyl)carbamate] | 163 | – | > 6340
CCCCc1nc2c(N)nnc(OC(C)C)c2n1Cc1ccc(CNS(C)(=O)=O)cc1 [Compound 115, N-(4-((4-amino-2-butyl-7-isopropoxy-1H-imidazo[4,5-d]pyridazin-1-yl)methyl)benzyl)methanesulfonamide] | 107 | – | > 16500
CCCCc1nc2c(N)nnc(OC(C)C)c2n1Cc1ccc(CN(C)C)cc1 [Compound 116, 2-butyl-1-(4-((dimethylamino)methyl)benzyl)-7-isopropoxy-1H-imidazo[4,5-d]pyridazin-4-amine] | 34 | – | 1820
CCCCc1nc2c(N)nnc(OC(C)C)c2n1Cc1ccc(CNCC(=O)OC(C)(C)C)cc1 [Compound 117, tert-butyl (4-((4-amino-2-butyl-7-isopropoxy-1H-imidazo[4,5-d]pyridazin-1-yl)methyl)benzyl)glycinate] | 190 | – | 8880
CCCCc1nc2c(N)nnc(OC(C)C)c2n1Cc1ccc(CNC)cc1 [Compound 118, 2-butyl-7-isopropoxy-1-(4-((methylamino)methyl)benzyl)-1H-imidazo[4,5-d]pyridazin-4-amine] | 11 | – | 1490
CCCCc1nc2c(N)nnc(OC(C)C)c2n1Cc1ccc(CNCCC(=O)OC(C)(C)C)cc1 [Compound 119, tert-butyl 3-((4-((4-amino-2-butyl-7-isopropoxy-1H-imidazo[4,5-d]pyridazin-1-yl)methyl)benzyl)amino)propanoate] | 143 | – | 2130
CCCCc1nc2c(N)nnc(OC(C)C)c2n1Cc1ccc(CNCCOCCOCCOC)cc1 [Compound 120, 1-(4-(5,8,11-trioxa-2-azadodecyl)benzyl)-2-butyl-7-isopropoxy-1H-imidazo[4,5-d]pyridazin-4-amine] | 133 | – | 14400
